According to patent US7326534B2, “Detection of gleevec resistant mutations” (Oregon Health and Science University, priority 2001, dated 2008):

Test system: Src family kinases
Assay: inhibition of tyrosine kinase
Type: biochemical
Text: […]. […] […]. […] […]

## Cc1ccc(NC(=O)c2ccc(CN3CCN(C)CC3)cc2)cc1Nc1nccc(-c2cccnc2)n1 [STI571, N-[4-methyl-3-(4-pyridin-3-yl-pyrimidin-2-ylamino)-phenyl]-4-(4-methyl-piperazin-1-ylmethyl)-benzamide]
  inhibition of kinase (in words): not
